Like-named read-outs stand apart in the source and are kept apart here.
What was measured:
[1] = target: T1, non-phosphorylated c-ABL kinase domain (Homo sapiens, UniProt P00519); assay: KinomeScan in vitro binding affinity (Kd), non-phosphorylated c-ABL kinase domain
T1 construct: phosphorylated and non-phosphorylated c-ABL kinase domain; purchased DiscoverRx Corporation (KinomeScan platform)
T1 sequence (P00519 242-493 limits assumed): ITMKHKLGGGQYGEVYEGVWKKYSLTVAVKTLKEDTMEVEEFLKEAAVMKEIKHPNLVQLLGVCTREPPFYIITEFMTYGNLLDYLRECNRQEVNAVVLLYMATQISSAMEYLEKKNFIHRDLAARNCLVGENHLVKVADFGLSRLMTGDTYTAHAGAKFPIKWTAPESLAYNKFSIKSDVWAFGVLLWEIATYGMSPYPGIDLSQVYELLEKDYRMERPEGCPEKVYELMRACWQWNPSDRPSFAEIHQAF
Experimental: (§1) PROTAC in vitro binding affinities (Kd) to phosphorylated and non-phosphorylated c-ABL kinase domain were determined using the KinomeScan platform (DiscoverRx Corporation). The compounds were solubilized in DMSO and sent to DiscoverRx Corporation as a 10 μM stock solution.

[2] = target: T2, phosphorylated c-ABL kinase domain (Homo sapiens, UniProt P00519); assay: KinomeScan in vitro binding affinity (Kd), phosphorylated c-ABL kinase domain
T2 construct: phosphorylated and non-phosphorylated c-ABL kinase domain; purchased DiscoverRx Corporation (KinomeScan platform)
T2 sequence (P00519 242-493 limits assumed): T1 sequence (P00519 242-493 limits assumed)
Experimental: as §1

[3] = Table 2, read-out: ABL (non-phosphorylated)
[4] = Table 2, read-out: ABL (phosphorylated)
[5] = Table 1, ABL kinase domain, read-out: ABL (non-phosphorylated) affinity
[6] = Table 1, ABL kinase domain, read-out: ABL (phosphorylated) affinity

| Kd [1, 3] | Kd [2, 4] | Kd [1, 5] | Kd [2, 6] | Compound |
| --- | --- | --- | --- | --- |
| – | – | 1.4 nM | 0.63 nM | COc1cc(Nc2c(C#N)cnc3cc(OCCCN4CCN(CCCCCCOCCOCCOCCCCCC(=O)N[C@H](C(=O)N5C[C@H](O)C[C@H]5C(=O)NCc5ccc(-c6scnc6C)cc5)C(C)(C)C)CC4)c(OC)cc23)c(Cl)cc1Cl [BOS-6-2-2-6-VHL, (2S,4R)-1-((S)-2-(tert-butyl)-22-(4-(3-((3-cyano-4-((2,4-dichloro-5-methoxyphenyl)amino)-6-methoxyquinolin-7-yl)oxy)propyl)piperazin-1-yl)-4-oxo-10,13,16-trioxa-3-azadocosanoyl)-4-hydroxy-N-(4-(4-methylthiazol-5-yl)benzyl)pyrrolidine-2-carboxamide] |
| 2.8 nM | 1.1 nM | – | – | COc1cc(Nc2c(C#N)cnc3cc(OCCCN4CCN(CCCCCCOCCCCCOCCCCCC(=O)Nc5cccc6c5C(=O)N(C5CCC(=O)NC5=O)C6=O)CC4)c(OC)cc23)c(Cl)cc1Cl (stereo not shown) [BOS-6-5-6-CRBN, 6-((5-((6-(4-(3-((3-cyano-4-((2,4-dichloro-5-methoxyphenyl)amino)-6-methoxyquinolin-7-yl)oxy)propyl)piperazin-1-yl)hexyl)oxy)pentyl)oxy)-N-(2-(2,6-dioxopiperidin-3-yl)-1,3-dioxoisoindolin-4-yl)hexanamide] |
| 4.6 nM | 1.5 nM | – | – | COc1cc(Nc2c(C#N)cnc3cc(OCCCN4CCN(CCCCCCOCCCCCOCCCCCC(=O)N[C@H](C(=O)N5C[C@H](O)C[C@H]5C(=O)NCc5ccc(-c6scnc6C)cc5)C(C)(C)C)CC4)c(OC)cc23)c(Cl)cc1Cl [BOS-6-5-6-VHL, (2S,4R)-1-((S)-2-(6-((5-((6-(4-(3-((3-cyano-4-((2,4-dichloro-5-methoxyphenyl)amino)-6-methoxyquinolin-7-yl)oxy)propyl)piperazin-1-yl)hexyl)oxy)pentyl)oxy)hexanamido)-3,3-dimethylbutanoyl)-4-hydroxy-N-(4-(4-methylthiazol-5-yl)benzyl)pyrrolidine-2-carboxamide] |
| 19 nM | 46 nM | – | – | Cc1ccc(NC(=O)c2ccc(CN3CCN(CCCCCCOCCCCCOCCCCCC(=O)N[C@H](C(=O)N4C[C@H](O)C[C@H]4C(=O)NCc4ccc(-c5scnc5C)cc4)C(C)(C)C)CC3)cc2)cc1Nc1nccc(-c2cccnc2)n1 [IMA-6-5-6-VHL, (2S,4R)-1-((S)-3,3-dimethyl-2-(6-((5-((6-(4-(4-((4-methyl-3-((4-(pyridin-3-yl)pyrimidin-2-yl)amino)phenyl)carbamoyl)benzyl)piperazin-1-yl)hexyl)oxy)pentyl)oxy)hexanamido)butanoyl)-4-hydroxy-N-(4-(4-methylthiazol-5-yl)benzyl)pyrrolidine-2-carboxamide] |

Second part, the compound before the results:

| Compound | Kd [1, 3] | Kd [2, 4] | Kd [1, 5] | Kd [2, 6] |
| --- | --- | --- | --- | --- |
| COc1cc(Nc2c(C#N)cnc3cc(OCCCN4CCN(CCCCCCOCCOCCOCCCCCC(=O)Nc5cccc6c5C(=O)N(C5CCC(=O)NC5=O)C6=O)CC4)c(OC)cc23)c(Cl)cc1Cl (stereo not shown) [BOS-6-2-2-6-CRBN, 6-(2-(2-((6-(4-(3-((3-cyano-4-((2,4-dichloro-5-methoxyphenyl)amino)-6-methoxyquinolin-7-yl)oxy)propyl)piperazin-1-yl)hexyl)oxy)ethoxy)ethoxy)-N-(2-(2,6-dioxopiperidin-3-yl)-1,3-dioxoisoindolin-4-yl)hexanamide] | 0.91 nM | 0.55 nM | – | – |
| Cc1nc(Nc2ncc(C(=O)Nc3c(C)cccc3Cl)s2)cc(N2CCN(CCCCCCOCCOCC(=O)Nc3cccc4c3C(=O)N(C3CCC(=O)NC3=O)C4=O)CC2)n1 (stereo not shown) [DAS-6-2-2-CRBN, N-(2-chloro-6-methylphenyl)-2-((6-(4-(6-(2-(2-((2-(2,6-dioxopiperidin-3-yl)-1,3-dioxoisoindolin-4-yl)amino)-2-oxoethoxy)ethoxy)hexyl)piperazin-1-yl)-2-methylpyrimidin-4-yl)amino)thiazole-5-carboxamide] | 0.28 nM | 0.19 nM | – | – |
| Cc1nc(Nc2ncc(C(=O)Nc3c(C)cccc3Cl)s2)cc(N2CCN(CCCCCCOCCCCCOCCCCCC(=O)Nc3cccc4c3C(=O)N(C3CCC(=O)NC3=O)C4=O)CC2)n1 (stereo not shown) [DAS-6-5-6-CRBN, N-(2-chloro-6-methylphenyl)-2-((6-(4-(6-((5-((6-((2-(2,6-dioxopiperidin-3-yl)-1,3-dioxoisoindolin-4-yl)amino)-6-oxohexyl)oxy)pentyl)oxy)hexyl)piperazin-1-yl)-2-methylpyrimidin-4-yl)amino)thiazole-5-carboxamide] | 1.3 nM | 1.4 nM | – | – |
| Cc1ccc(NC(=O)c2ccc(CN3CCN(CCCCCCOCCOCCOCCCCCC(=O)Nc4cccc5c4C(=O)N(C4CCC(=O)NC4=O)C5=O)CC3)cc2)cc1Nc1nccc(-c2cccnc2)n1 (stereo not shown) [IMA-6-2-2-6-CRBN, 4-((4-(6-(2-(2-((6-((2-(2,6-dioxopiperidin-3-yl)-1,3-dioxoisoindolin-4-yl)amino)-6-oxohexyl)oxy)ethoxy)ethoxy)hexyl)piperazin-1-yl)methyl)-N-(4-methyl-3-((4-(pyridin-3-yl)pyrimidin-2-yl)amino)phenyl)benzamide] | – | – | 6.2 nM | 110 nM |
| Cc1ccc(NC(=O)c2ccc(CN3CCN(CCCCCCOCCOCCOCCCCCC(=O)N[C@H](C(=O)N4C[C@H](O)C[C@H]4C(=O)NCc4ccc(-c5scnc5C)cc4)C(C)(C)C)CC3)cc2)cc1Nc1nccc(-c2cccnc2)n1 [IMA-6-2-2-6-VHL, (2S,4R)-1-((S)-2-(tert-butyl)-22-(4-(4-((4-methyl-3-((4-(pyridin-3-yl)pyrimidin-2-yl)amino)phenyl)carbamoyl)benzyl)piperazin-1-yl)-4-oxo-10,13,16-trioxa-3-azadocosanoyl)-4-hydroxy-N-(4-(4-methylthiazol-5-yl)benzyl)pyrrolidine-2-carboxamide] | – | – | 4.3 nM | 93 nM |
| Cc1ccc(NC(=O)c2ccc(CN3CCN(CCCCCCOCCOCC(=O)Nc4cccc5c4C(=O)N(C4CCC(=O)NC4=O)C5=O)CC3)cc2)cc1Nc1nccc(-c2cccnc2)n1 (stereo not shown) [IMA-6-2-2-CRBN, 4-((4-(6-(2-(2-((2-(2,6-dioxopiperidin-3-yl)-1,3-dioxoisoindolin-4-yl)amino)-2-oxoethoxy)ethoxy)hexyl)piperazin-1-yl)methyl)-N-(4-methyl-3-((4-(pyridin-3-yl)pyrimidin-2-yl)amino)phenyl)benzamide] | 4.7 nM | 72 nM | – | – |
| Cc1ccc(NC(=O)c2ccc(CN3CCN(CCCCCCOCCOCC(=O)N[C@H](C(=O)N4C[C@H](O)C[C@H]4C(=O)NCc4ccc(-c5scnc5C)cc4)C(C)(C)C)CC3)cc2)cc1Nc1nccc(-c2cccnc2)n1 [IMA-6-2-2-VHL, (2S,4R)-1-((S)-3,3-dimethyl-2-(2-(2-((6-(4-(4-((4-methyl-3-((4-(pyridin-3-yl)pyrimidin-2-yl)amino)phenyl)carbamoyl)benzyl)piperazin-1-yl)hexyl)oxy)ethoxy)acetamido)butanoyl)-4-hydroxy-N-(4-(4-methylthiazol-5-yl)benzyl)pyrrolidine-2-carboxamide] | 5.8 nM | 98 nM | – | – |
| Cc1ccc(NC(=O)c2ccc(CN3CCN(CCCCCCOCCCCCOCCCCCC(=O)Nc4cccc5c4C(=O)N(C4CCC(=O)NC4=O)C5=O)CC3)cc2)cc1Nc1nccc(-c2cccnc2)n1 (stereo not shown) [IMA-6-5-6-CRBN, 4-((4-(6-((5-((6-((2-(2,6-dioxopiperidin-3-yl)-1,3-dioxoisoindolin-4-yl)amino)-6-oxohexyl)oxy)pentyl)oxy)hexyl)piperazin-1-yl)methyl)-N-(4-methyl-3-((4-(pyridin-3-yl)pyrimidin-2-yl)amino)phenyl)benzamide] | 24 nM | 360 nM | – | – |
| Cc1ccc(NC(=O)c2ccc(CN3CCN(CCCCCCOCCOCCOCCOCCOCCOCC(=O)Nc4cccc5c4C(=O)N(C4CCC(=O)NC4=O)C5=O)CC3)cc2)cc1Nc1nccc(-c2cccnc2)n1 (stereo not shown) [IMA-6-(2-)5-2-CRBN, N-(2-(2,6-dioxopiperidin-3-yl)-1,3-dioxoisoindolin-4-yl)-24-(4-(4-((4-methyl-3-((4-(pyridin-3-yl)pyrimidin-2-yl)amino)phenyl)carbamoyl)benzyl)piperazin-1-yl)-3,6,9,12,15,18-hexaoxatetracosanamide] | 3 nM | 84 nM | – | – |
| Cc1ccc(NC(=O)c2ccc(CN3CCN(CCCCCCOCCOCCOCCOCCOCCOCC(=O)N[C@H](C(=O)N4C[C@H](O)C[C@H]4C(=O)NCc4ccc(-c5scnc5C)cc4)C(C)(C)C)CC3)cc2)cc1Nc1nccc(-c2cccnc2)n1 [IMA-6-(2-)5-2-VHL, (2S,4R)-1-((S)-2-(tert-butyl)-27-(4-(4-((4-methyl-3-((4-(pyridin-3-yl)pyrimidin-2-yl)amino)phenyl)carbamoyl)benzyl)piperazin-1-yl)-4-oxo-6,9,12,15,18,21-hexaoxa-3-azaheptacosanoyl)-4-hydroxy-N-(4-(4-methylthiazol-5-yl)benzyl)pyrrolidine-2-carboxamide] | 1.7 nM | 35 nM | – | – |
